Test results taken from patent US6756210B2, “Linoleic acid diol and glucuronide conjugate levels as diagnostic markers of disorders of abnormal regulation of cytochrome P450 metabolism of unsaturated fatty acids” (The Regents of the University of California, priority 2001, dated 2004).
Where two headings read alike, the source gives them in different places.

Assays:
Human sEH (HsEH) = target: T1, Human sEH (HsEH) (Homo sapiens, UniProt P34913); test: Inhibition of recombinant human sEH (HsEH); format: biochemical; conditions: HsEH 0.26 μM
T1 sequence (P34913 1-555): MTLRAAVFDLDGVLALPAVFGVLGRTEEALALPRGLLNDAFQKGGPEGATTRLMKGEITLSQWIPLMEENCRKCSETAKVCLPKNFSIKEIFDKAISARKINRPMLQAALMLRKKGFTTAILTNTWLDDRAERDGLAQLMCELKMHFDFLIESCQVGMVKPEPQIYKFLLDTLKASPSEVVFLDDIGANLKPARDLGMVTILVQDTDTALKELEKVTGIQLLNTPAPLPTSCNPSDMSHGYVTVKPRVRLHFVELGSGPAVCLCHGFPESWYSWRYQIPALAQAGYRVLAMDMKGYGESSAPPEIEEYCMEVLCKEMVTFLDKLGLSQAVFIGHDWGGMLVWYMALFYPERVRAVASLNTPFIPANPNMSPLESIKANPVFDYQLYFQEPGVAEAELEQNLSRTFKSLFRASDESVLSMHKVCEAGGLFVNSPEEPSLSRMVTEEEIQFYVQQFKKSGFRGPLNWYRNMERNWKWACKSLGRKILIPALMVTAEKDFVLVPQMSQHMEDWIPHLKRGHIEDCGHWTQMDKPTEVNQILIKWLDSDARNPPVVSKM

[1] = target: T2, recombinant mouse sEH (MsEH) (Mus musculus, UniProt P34914); test: Inhibition of recombinant mouse sEH (MsEH); format: biochemical
T2 sequence (P34914 1-554): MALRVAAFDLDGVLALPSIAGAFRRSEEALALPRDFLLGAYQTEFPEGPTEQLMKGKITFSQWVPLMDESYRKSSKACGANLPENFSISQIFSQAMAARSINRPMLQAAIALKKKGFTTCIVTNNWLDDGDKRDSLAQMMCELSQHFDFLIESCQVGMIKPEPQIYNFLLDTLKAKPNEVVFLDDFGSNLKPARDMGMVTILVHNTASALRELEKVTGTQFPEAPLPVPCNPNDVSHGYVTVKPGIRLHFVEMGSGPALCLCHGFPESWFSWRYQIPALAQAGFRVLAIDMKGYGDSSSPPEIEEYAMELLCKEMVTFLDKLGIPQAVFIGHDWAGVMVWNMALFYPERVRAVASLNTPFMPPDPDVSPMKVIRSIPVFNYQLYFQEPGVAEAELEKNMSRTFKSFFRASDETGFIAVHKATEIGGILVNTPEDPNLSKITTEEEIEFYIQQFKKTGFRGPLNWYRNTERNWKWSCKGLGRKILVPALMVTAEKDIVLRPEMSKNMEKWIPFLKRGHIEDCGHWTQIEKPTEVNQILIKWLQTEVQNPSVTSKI

[2] = Table 1, MsEH 0.13 μM, read-out: Mouse sEH IC50
[3] = Table 2, MsEH 0.13 μM, read-out: Mouse sEH IC50

Compound | IC50 (Human sEH (HsEH); Table 1) [nM] | IC50 [1, 2] [nM] | IC50 [1] [nM] | IC50 (Human sEH (HsEH); Table 2) [nM] | IC50 [1, 3] [nM]
CCCCCCCCNC(=O)NC1CCC1 [compound 181] | 1710 ± 230 | 520 ± 20 | – | – | –
O=C(NCCC1=CCCCC1)NC1CCCCC1 [compound 359] | 100 ± 10 | 50 ± 10 | – | – | –
CCCCCCCCCCCCNC(=O)NCCCC [compound 531] | 640 ± 30 | 140 ± 20 | – | – | –
C=C(C)CCOC(=O)NC1CCCCC1 [compound 277] | 220 ± 20 | 120 ± 10 | – | – | –
O=C(NC1CCCCC1)OC1C2CC3CC(C2)CC1C3 (stereo not drawn) [compound 260] | 100 ± 10 | 60 ± 10 | – | – | –
O=C(NC1CCCCC1)Oc1ccccc1CO [compound 224] | 320 ± 80 | – | 990 ± 20 | – | –
Cc1ccc(C(=O)C2OC2c2ccc(-c3ccccc3)cc2)cc1 (racemic) [R=4-C6H5—C6H4, R′=4-CH3—C6H4, X—Y=C═O, ±] | – | – | – | 190 ± 30 | 100 ± 10
O=C(NCCCc1ccccc1)NC12CC3CC(CC(C3)C1)C2 [compound 438] | 100 ± 10 | 50 ± 10 | – | – | –
O=C(Nc1ccc(Br)cc1)NC1CCCCC1 [compound 65] | 110 ± 10 | 170 ± 10 | – | – | –
CC(O)C1OC1c1ccc([N+](=O)[O-])cc1 (racemic) [R=4-NO2—C6H4, R′=CH3, X—Y=CH—OH, ±] | – | – | – | 39000 ± 1000 | 6500 ± 200
O=C(NC1CCCCC1)OC1CCCCC1 [compound 42] | 130 ± 10 | 60 ± 10 | – | – | –
O=C(NC1CCCCC1)NC1CCCc2ccccc21 (stereo not drawn) [compound 434] | 100 ± 10 | 50 ± 10 | – | – | –
CC(C)(C)c1ccc(NC(=O)NC2CCCCC2)cc1 [compound 75] | 230 ± 10 | 60 ± 10 | – | – | –
O=C(NCC1CCCCC1)NC1CCCCC1 [compound 57] | 160 ± 10 | 60 ± 10 | – | – | –
CC1CCC(C(C)C)C(OC(=O)NC2CCCCC2)C1 (stereo not drawn) [compound 261] | 120 ± 10 | 80 ± 10 | – | – | –
CCCCCCCCNC(=O)NCCCCC [compound 125] | 720 ± 20 | 90 ± 10 | – | – | –
O=C(NC1CCCCCC1)NC1CCCCC1 [compound 22] | 100 ± 10 | 50 ± 100 | – | – | –
OC(c1ccccc1)C1OC1c1ccccc1 (racemic) [R=C6H5, R′=C6H5, X—Y=CH—OH, ±] | – | – | – | 22000 ± 2000 | 12600 ± 900
O=C(O)CCCCCCCCCCCNC(=O)Nc1ccc2ccccc2c1 [compound 283] | 1120 ± 30 | 700 ± 200 | – | – | –
CCOC(CNC(=O)Nc1ccc(C(C)C)cc1)OCC [compound 159] | 3400 ± 40 | 590 ± 30 | – | – | –
O=C(NCCCCCCO)NC1CCCCC1 [compound 344] | 2500 ± 80 | 50 ± 10 | – | – | –
CC(C)[C@@H]1CC[C@@H](C)C[C@H]1OC(=O)NC1CCCCC1 [compound 225] | 1050 ± 30 | 840 ± 100 | – | – | –
O=C(NC1CCCCC1)NC1CC2CCC1C2 (stereo not drawn) [compound 543] | 100 ± 10 | 50 ± 10 | – | – | –

Compound | IC50 (Human sEH (HsEH); Table 1) [nM] | IC50 [1, 2] [nM] | IC50 [1] [nM] | IC50 (Human sEH (HsEH); Table 2) [nM] | IC50 [1, 3] [nM]
O=C(NCC12CC3CC(CC(C3)C1)C2)NC12CC3CC(CC(C3)C1)C2 [compound 412] | 100 ± 10 | 50 ± 10 | – | – | –
CCCCCCNC(=O)Nc1cccc(Cl)c1 [compound 178] | 250 ± 10 | 310 ± 10 | – | – | –
CC(C)c1ccc(NC(=O)NCCc2ccccc2)cc1 [compound 156] | 480 ± 10 | 200 ± 10 | – | – | –
O=C(NCC1CCCCC1)Nc1cccc(Cl)c1 [compound 179] | 100 ± 10 | 60 ± 10 | – | – | –
CC(C)(C)C1CCC(NC(=O)NC2CCCCC2)CC1 (stereo not drawn) [compound 428] | 100 ± 10 | 50 ± 100 | – | – | –
CCCCCCCCCCCCNC(=O)NCC(C)C [compound 478] | 260 ± 20 | 50 ± 10 | – | – | –
O=C(NC1CCCCCCCCCCC1)NC12CC3CC(CC(C3)C1)C2 [compound 413] | 100 ± 10 | 50 ± 10 | – | – | –
CC1CCC(NC(=O)NC2CCCCC2)CC1 (stereo not drawn) [compound 538] | 100 ± 10 | 50 ± 10 | – | – | –
O=C(O)CCCCCCCCCCCNC(=O)NC1CCCCC1 [compound 425] | 100 ± 10 | 50 ± 10 | – | – | –
O=C(CC1CCCCC1)NC1CCCCC1 [compound 187] | 420 ± 30 | 50 ± 10 | – | – | –
CCCCCCCCCNC(=O)NC1CCCCC1 [compound 473] | 100 ± 10 | 50 ± 10 | – | – | –
O=C(Nc1ccc(OC(F)(F)F)cc1)NC1CCCCC1 [compound 343] | 100 ± 10 | 50 ± 10 | – | – | –
CC(=O)C1OC1c1ccc([N+](=O)[O-])cc1 (racemic) [R=4-NO2—C6H4, R′=CH3, X—Y=C═O, ±] | – | – | – | 269000 ± 5000 | 163000 ± 11000
ON=C(c1ccccc1)C1OC1c1ccc(-c2ccccc2)cc1 (racemic) [R=4-C6H5—C6H4, R′=C6H5, X—Y=C═NOH, ±] | – | – | – | 35000 ± 1000 | 42000 ± 3000
[O-][S+](c1ccccc1)C1OC1c1ccccc1 (racemic) [R=C6H5, R′=C6H5, X—Y=S═O, ±] | – | – | – | 310 ± 20 | 2300 ± 400
O=C(NC1CCCCC1)NC1CCCC1 [compound 23] | 1690 ± 50 | 100 ± 10 | – | – | –
O=C(NCc1ccc(Cl)cc1)NC1CCCCC1 [compound 193] | 190 ± 10 | 50 ± 10 | – | – | –
O=C(NCC1CCCCC1)NC12CC3CC(CC(C3)C1)C2 [compound 437] | 100 ± 10 | 50 ± 10 | – | – | –
O=C(Nc1ccc([N+](=O)[O-])cc1)NC1CCCCC1 [compound 38] | 360 ± 20 | 170 ± 10 | – | – | –
Cc1cccc(C)c1NC(=O)NC1CCCCC1 [compound 435] | 180 ± 10 | 50 ± 10 | – | – | –
CCCCCCCCCCCCNC(=O)NC1CCC1 [compound 504] | 23000 ± 4000 | 800 ± 100 | – | – | –
O=C(NCC1CCCCC1)Nc1ccc2ccccc2c1 [compound 169] | 130 ± 10 | 60 ± 10 | – | – | –
O=C(NCCc1ccccc1)NCc1ccccc1 [compound 470] | 7600 ± 100 | 590 ± 80 | – | – | –

Compound | IC50 (Human sEH (HsEH); Table 1) [nM] | IC50 [1, 2] [nM] | IC50 [1] [nM] | IC50 (Human sEH (HsEH); Table 2) [nM] | IC50 [1, 3] [nM]
CCCCCCNC(=O)Nc1ccc2ccccc2c1 [compound 143] | 570 ± 10 | 1000 ± 100 | – | – | –
CC(=O)c1ccc(NC(=O)NC2CCCCC2)cc1 [compound 126] | 270 ± 20 | 60 ± 10 | – | – | –
CCCCCCCCCCCNC(=O)NCCCC [compound 556] | 740 ± 70 | 200 ± 20 | – | – | –
CCCCCCCCCCOC(=O)NC [compound 248] | 2900 ± 600 | – | 330 ± 50 | – | –
CCCCCCCCNC(=O)NC(C)C [compound 183] | 5900 ± 300 | 1060 ± 70 | – | – | –
O=C(NCCc1cnc[nH]1)NC1CCCCC1 [compound 461] | 550 ± 20 | 420 ± 10 | – | – | –
O=C(Nc1nnn[nH]1)NC1CCCCC1 [compound 533] | 100 ± 10 | 50 ± 100 | – | – | –
CC(C)(C)CC(C)(C)NC(=O)NC1C2CC3CC(C2)CC1C3 (stereo not drawn) [compound 375] | 110 ± 10 | 180 ± 10 | – | – | –
O=C(NC1CCCCC1)OCCCCc1ccc([N+](=O)[O-])cc1 [compound 460] | 180 ± 10 | 100 ± 20 | – | – | –
[O-][S+](c1ccccc1)C1OC1c1ccc(-c2ccccc2)cc1 (racemic) [R=4-C6H5—C6H4, R′=C6H5, X—Y=S═O, ±] | – | – | – | 70000 ± 3000 | 73000 ± 5000
CCCCCCCCCCCCCNC(=O)NC1CCCCC1 [compound 354] | 100 ± 10 | 50 ± 10 | – | – | –
CC(C)CNC(=O)NC1CCCCC1 [compound 103] | 2200 ± 100 | 120 ± 10 | – | – | –
CCCCCCCCNC(=O)OC [compound 72] | 480 ± 10 | 110 ± 10 | – | – | –
O=C(NC1CCCCC1)OCc1c2ccccc2cc2ccccc12 [compound 263] | 330 ± 60 | 3000 ± 300 | – | – | –
Nc1ccc(NC(=O)NC2CCCCC2)cc1 [compound 385] | 2200 ± 100 | 170 ± 20 | – | – | –
O=C(NCC1CCCCC1)Nc1ccccc1 [compound 176] | 530 ± 30 | 60 ± 10 | – | – | –
CCCCCCNC(=O)Nc1ccccc1 [compound 157] | 1430 ± 30 | 850 ± 10 | – | – | –
Cc1ccc(NC(=O)NC2CCCCC2)cc1 [compound 108] | 170 ± 10 | 130 ± 10 | – | – | –
O=C(NC12CC3CC(CC(C3)C1)C2)NC12CC3CC(CC(C3)C1)C2 [compound 411] | 100 ± 10 | 50 ± 10 | – | – | –
O=C(Nc1ccc(F)cc1)NC1CCCCC1 [compound 60] | 430 ± 20 | 780 ± 20 | – | – | –
O=C(NC1CCCCC1)NC1C2CC3CC(C2)CC1C3 (stereo not drawn) [compound 427] | 100 ± 10 | 50 ± 10 | – | – | –
O=C(NCCCCc1ccccc1)NC1CCCCC1 [compound 105] | 580 ± 30 | 50 ± 10 | – | – | –
CCCCCCCCCCNC(=O)NC1CCCCC1 [compound 153] | 100 ± 10 | 60 ± 10 | – | – | –
